Results: patent US20240116910A1, “Heterocycles as WIP1 Inhibitors” (PMV Pharmaceuticals, Inc., priority 2022, published 2024)

Target: recombinant His-tag Wip1(2-420) protein (amino acids #2-420) (Homo sapiens (Human), UniProt O15297)
Assay: Wip1(2-420) phosphatase enzyme FDP assay
Assay type: biochemical
Conditions: fluorescein diphosphate (FDP) substrate, RT 2 hours, fluorescence Ex485/Em535; read-out: WIP1 (Truncated 2-420) FDP Assay: IC50
Experimental: The Human Wip1 (2-420, aa 2-420) or Wip1 full length (aa 1-605) DNA sequence was codon optimized and synthesized by Genscript for insect cell expression. The open reading frame of Wip1(2-420) with a N-terminal-His6 affinity tag followed by a TEV cleavage site was subcloned sites into the pFastBac1 expression vector. The recombinant bacmid DNA was transfected in Sf9 insect cells for baculovirus production. After 72 hours infection, the Sf9 cells were harvested by centrifugation and resuspended in lysis buffer containing 50 mM Tris/HCl, pH 8.0, 500 mM NaCl, 20% glycerol, Benzonase 0.5% CHAPS and Roche cOmplete™ EDTA free protease inhibitors. Cells were disrupted with microfluidizer and the debris was removed by centrifugation at 185,000 g for 1 hour. The supernatant was subjected to HisTrap FF for affinity purification. Proteins were eluted with a linear gradient of 0-500 mM imidazole in HisTrap buffer containing 50 mM Tris/HCl, pH 8.0, 500 mM NaCl and 20% glycerol, 0.05% CHAPS. The eluted protein was dialyzed against dialysis buffer (20 mM MES, 100 mM NaCl, 20% glycerol, 0.5 mM TCEP, 0.05% CHAPS) followed purification via HiTrap SP HP column. The protein was eluted with a gradient of 100 mM-2 M NaCl in dialysis buffer. His6-[…] was finally concentrated and loaded onto a size-exclusion column (NiLoad 16/600 Superdex 200 pg, GE Healthcare) pre-equilibrated with 50 mM MOPS (pH 7.5), 200 mM NaCl, 20% glycerol, 1 mM TCEP, 0.05% CHAPS and 0.1 mM EGTA. The peak fractions containing purified Nis6-Wip1(2-420) were pooled and concentrated to 1.0 mg/mL and flash frozen at −80° C.
Wip1 Length and Wip1(2-420) Phosphatase Enzyme FDP Assays.
Test compounds (252 mM stock in DMSO) were diluted 3 folds in series in DMSO and 1.2 μl per well were added into 384-well polypropylene black plates (Nunc). Twelve μl per well of Assay Buffer (100 mM NaCl, 50 mM MOPS, pH 7.5, 0.8 mM CHAPS, 0.1 mM EGTA, 30 mM MgCl2, 0.3 mM TCEP, 0.2 mg/mL BSA) was added followed by […] per well of 50.4 nM recombinant His-tag Wip1 full length protein (amino acids #1-605) or recombinant His-tag Wip1(2-420) protein (amino acids #2-420) in Assay Buffer and the plate was incubated at RT (22° C.) for 5 min. Ten mM of fluorescein diphosphate (FDP) in DMSO was diluted to […] in Assay Buffer and […] per well was added to the plate and incubated at RT (22° C.) for 2 hours. […] per well of 64.1 mM EDTA in water were added to stop the enzyme reaction. The plate was centrifuged at 1,200 rpm (Eppendorf 5810R Plate centrifuge) for 1 minute and fluorescence intensity (Ex485/Em535) was measured on Perkin Elmer Victor Reader. EC50 values were calculated using either Prism (GraphPad) or ActivityBase software (IDBS), The IC50 results are provided in Table M.

Sequence of recombinant His-tag Wip1(2-420) protein (amino acids #2-420) (O15297 2-420): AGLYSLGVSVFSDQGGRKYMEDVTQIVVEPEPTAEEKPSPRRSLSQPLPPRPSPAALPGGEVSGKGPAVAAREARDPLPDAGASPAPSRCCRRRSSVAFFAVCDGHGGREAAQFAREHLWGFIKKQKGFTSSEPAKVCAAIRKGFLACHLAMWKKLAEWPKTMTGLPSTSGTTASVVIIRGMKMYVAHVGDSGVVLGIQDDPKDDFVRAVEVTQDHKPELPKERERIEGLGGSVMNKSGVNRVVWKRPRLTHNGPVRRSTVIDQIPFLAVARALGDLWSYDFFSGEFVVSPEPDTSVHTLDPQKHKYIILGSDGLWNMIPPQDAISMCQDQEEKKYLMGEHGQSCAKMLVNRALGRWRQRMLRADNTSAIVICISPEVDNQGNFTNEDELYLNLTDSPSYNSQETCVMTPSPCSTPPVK

| SMILES | IC50 [nM] |
| --- | --- |
| Cc1ncc(Cl)cc1N[C@@H](C)c1ccc(C(=O)N[C@@H](CC2CCCCC2)C(=O)NC2CC2)s1 [Compound 107, (2S)-2-({5-[(1S)-1-[(5-chloro-2-methylpyridin-3-yl)amino]ethyl]thiophen-2-yl}formamido)-3-cyclohexyl-N-cyclopropylpropanamide] | 4 |
| Cc1ncc(Cl)cc1N[C@@H](C)c1ccc(C(=O)N[C@@H](CC2CCCC2)C(=O)Nc2cnn(CCF)c2)s1 [Compound 141, (2S)-2-({5-[(1S)-1-[(5-chloro-2-methylpyridin-3-yl)amino]ethyl]thiophen-2-yl}formamido)-3-cyclopentyl-N-[1-(2-fluoroethyl)-1H-pyrazol-4-yl]propanamide] | 5 |
| C[C@H](c1ccc(C(=O)N[C@@H](CC2CCCC2)C(=O)NC23CC(C2)C3)s1)N(C)c1cncc(Cl)c1 [Compound 97, (2S)-N-{bicyclo[1.1.1]pentan-1-yl}-2-({5-[(1R)-1-[(5-chloropyridin-3-yl)(methyl)amino]ethyl]thiophen-2-yl}formamido)-3-cyclopentylpropanamide] | 11 |
| Cc1ncc(Cl)cc1N[C@H](C)c1ncc(C(=O)N[C@@H](CC2CCCC2)C(=O)NC2CC2)s1 [Compound 127, (2S)-2-({2-[(1R)-1-[(5-chloro-2-methylpyridin-3-yl)amino]ethyl]-1,3-thiazol-5-yl}formamido)-3-cyclopentyl-N-cyclopropylpropanamide] | 1550 |
| Cc1ncc(Cl)cc1N[C@H](C)c1ccc(C(=O)N[C@@H](CC2CCCC2)C(=O)NC2CC2)s1 [Compound 9, 5-[(1R)-1-[(5-chloro-2-methyl-3-pyridyl)amino]ethyl]-N-[(1S)-1-(cyclopentylmethyl)-2-(cyclopropylamino)-2-oxo-ethyl]thiophene-2-carboxamide] | 411 |
| Cc1ncc(Cl)cc1N[C@@H](C)c1ccc(C(=O)N[C@@H](CC2CCCC2)C(=O)N[C@H]2C[C@H](C(=O)O)C2)s1 [Compound 95, (1r,3r)-3-[(2S)-2-({5-[(1S)-1-[(5-chloro-2-methylpyridin-3-yl)amino]ethyl]thiophen-2-yl}formamido)-3-cyclopentylpropanamido]cyclobutane-1-carboxylic acid] | 10 |
| Cc1cccc(NC(=O)[C@H](CC2CCCC2)NC(=O)c2ccc([C@H](C)Nc3cc(Cl)cnc3C)s2)n1 [Compound 86] | 8 |
| COC(=O)[C@H]1C[C@H](NC(=O)[C@H](CC2CCCC2)NC(=O)c2ccc([C@H](C)Nc3cc(Cl)cnc3C)s2)C1 [Compound 94, methyl (1r,3r)-3-[(2S)-2-({5-[(1S)-1-[(5-chloro-2-methylpyridin-3-yl)amino]ethyl]thiophen-2-yl}formamido)-3-cyclopentylpropanamido]cyclobutane-1-carboxylate] | 5 |
| Cc1ncc(Cl)cc1NC(Cc1ccncc1)c1ccc(C(=O)N[C@@H](CC2CCCC2)C(=O)NC2CC2)s1 (stereo partly drawn) [Compound 130, (2S)-2-[(5-{1-[(5-chloro-2-methylpyridin-3-yl)amino]-2-(pyridin-4-yl)ethyl}thiophen-2-yl)formamido]-3-cyclopentyl-N-cyclopropylpropanamide] | 22 |
| Cc1ncc(Cl)cc1N[C@@H](C)c1ccc(C(=O)N[C@@H](CC2CCCC2)C(=O)NC2CC3(CCC3)C2)s1 [Compound 104, (2S)-2-({5-[(1S)-1-[(5-chloro-2-methylpyridin-3-yl)amino]ethyl]thiophen-2-yl}formamido)-3-cyclopentyl-N-{spiro[3.3]heptan-2-yl}propanamide] | 6 |

Other lines, results leading:

| IC50 [nM] | SMILES |
| --- | --- |
| 316 | C[C@@H](Nc1cc(Cl)cnc1C(C)(C)O)c1ccc(C(=O)N[C@@H](CC2CCCC2)C(=O)NC2CC2)s1 [Compound 193, (2S)-2-({5-[(1R)-1-{[5-chloro-2-(2-hydroxypropan-2-yl)pyridin-3-yl]amino}ethyl]thiophen-2-yl}formamido)-3-cyclopentyl-N-cyclopropylpropanamide] |
| 14 | Cc1ncc(Cl)cc1N[C@@H](C)c1ccc(C(=O)N[C@@H](C[C@H]2CCC3C[C@@H]32)C(=O)NC2CC2)s1 (stereo partly drawn) [Compound 272, (2S)-3-[(2R)-bicyclo[3.1.0]hexan-2-yl]-2-({5-[(1S)-1-[(5-chloro-2-methylpyridin-3-yl)amino]ethyl]thiophen-2-yl}formamido)-N-cyclopropylpropanamide] |
| 4 | COc1cnc2ccc(NC(=O)[C@H](CC3CCCC3)NC(=O)c3ccc([C@H](C)Nc4cc(Cl)cnc4C)s3)cc2c1 [Compound 180, (2S)-2-({5-[(1S)-1-[(5-chloro-2-methylpyridin-3-yl)amino]ethyl]thiophen-2-yl}formamido)-3-cyclopentyl-N-(3-methoxyquinolin-6-yl)propanamide] |
| 6 | Cc1cc(NC(=O)[C@H](CC2CCCC2)NC(=O)c2ccc(C(C)(C)Nc3cc(Cl)cnc3C)s2)ccn1 [Compound 270, (2S)-2-[(5-{2-[(5-chloro-2-methylpyridin-3-yl)amino]propan-2-yl}thiophen-2-yl)formamido]-3-cyclopentyl-N-(2-methylpyridin-4-yl)propanamide] |
| 132 | Cc1ncc(Cl)cc1NC(c1ccc(C(=O)N[C@@H](CC2CCCC2)C(=O)NC2CC2)s1)C(F)(F)F (stereo partly drawn) [Compound 224, (2S)-2-[(5-{1-[(5-chloro-2-methylpyridin-3-yl)amino]-2,2,2-trifluoroethyl}thiophen-2-yl)formamido]-3-cyclopentyl-N-cyclopropylpropanamide] |
| 5 | Cc1ncc(Cl)cc1N[C@@H](C)c1ccc(C(=O)N[C@@H](CC2CCCC2)C(=O)Nc2ccc3ncc(F)cc3c2)s1 [Compound 178, (2S)-2-({5-[(1S)-1-[(5-chloro-2-methylpyridin-3-yl)amino]ethyl]thiophen-2-yl}formamido)-3-cyclopentyl-N-(3-fluoroquinolin-6-yl)propanamide] |
| 29 | C[C@H](Nc1cc(Cl)cnc1C(=O)N(C)C)c1ccc(C(=O)N[C@@H](CC2CCCC2)C(=O)NC2CC2)s1 [Compound 205, 5-chloro-3-{[(1S)-1-(5-{[(1S)-2-cyclopentyl-1-(cyclopropylcarbamoyl)ethyl]carbamoyl}thiophen-2-yl)ethyl]amino}-N,N-dimethylpyridine-2-carboxamide] |
| 38 | C[C@@H](c1ccc(C(=O)N[C@@H](CC2CCCC2)C(=O)NC2CC2)s1)N1CCN(C)c2ccc(Cl)cc21 [Compound 239, (2S)-2-({5-[(1S)-1-(7-chloro-4-methyl-1,2,3,4-tetrahydroquinoxalin-1-yl)ethyl]thiophen-2-yl}formamido)-3-cyclopentyl-N-cyclopropylpropanamide] |
| 6 | Cc1ncc(Cl)cc1N[C@@H](C)c1ccc(C(=O)N[C@@H](CC2CCCC2)C(=O)Nc2ccc3ncc(C#N)cc3c2)s1 [Compound 148, (2S)-2-({5-[(1S)-1-[(5-chloro-2-methylpyridin-3-yl)amino]ethyl]thiophen-2-yl}formamido)-N-(3-cyanoquinolin-6-yl)-3-cyclopentylpropanamide] |
| 20 | Cc1ncc(Cl)cc1NC(C)(C)c1ccc(C(=O)N[C@@H](CC2CCCC2)C(=O)NC23CC(C#N)(C2)C3)s1 [Compound 266, (2S)-2-[(5-{2-[(5-chloro-2-methylpyridin-3-yl)amino]propan-2-yl}thiophen-2-yl)formamido]-N-{3-cyanobicyclo[1.1.1]pentan-1-yl}-3-cyclopentylpropanamide] |
| 1420 | Cc1cc(NC(=O)[C@@H](CCC(C)(C)C)NC(=O)c2ccc([C@H](C)Nc3cc(Cl)cnc3C)s2)ccn1 [Compound 145, (2R)-2-({5-[(1S)-1-[(5-chloro-2-methylpyridin-3-yl)amino]ethyl]thiophen-2-yl}formamido)-5,5-dimethyl-N-(2-methylpyridin-4-yl)hexanamide] |
| 293 | C[C@@H](Nc1cc(Cl)cnc1-c1cccnc1)c1ccc(C(=O)N[C@@H](CC2CCCC2)C(=O)NC2CC2)s1 [Compound 233, (2S)-2-({5-[(1R)-1-({5-chloro-[2,3′-bipyridin]-3-yl}amino)ethyl]thiophen-2-yl}formamido)-3-cyclopentyl-N-cyclopropylpropanamide] |
